# According to patent publication EP2970215B1, “PYRROLIDINE DERIVATIVES, PHARMACEUTICAL COMPOSITIONS CONTAINING THEM, AND THEIR USE IN THERAPY” (AbbVie Deutschland GmbH & Co. KG, priority 2013, dated 2014):
# Target: T1, human GlyT1c transporter (Homo sapiens, UniProt P48067)
# T1 construct: expressed in transfected cells; host or cells: CHO cells (recombinant; line hGlyT1c_5_CHO is named for the uptake assay)
# T1 sequence (P48067 1-706): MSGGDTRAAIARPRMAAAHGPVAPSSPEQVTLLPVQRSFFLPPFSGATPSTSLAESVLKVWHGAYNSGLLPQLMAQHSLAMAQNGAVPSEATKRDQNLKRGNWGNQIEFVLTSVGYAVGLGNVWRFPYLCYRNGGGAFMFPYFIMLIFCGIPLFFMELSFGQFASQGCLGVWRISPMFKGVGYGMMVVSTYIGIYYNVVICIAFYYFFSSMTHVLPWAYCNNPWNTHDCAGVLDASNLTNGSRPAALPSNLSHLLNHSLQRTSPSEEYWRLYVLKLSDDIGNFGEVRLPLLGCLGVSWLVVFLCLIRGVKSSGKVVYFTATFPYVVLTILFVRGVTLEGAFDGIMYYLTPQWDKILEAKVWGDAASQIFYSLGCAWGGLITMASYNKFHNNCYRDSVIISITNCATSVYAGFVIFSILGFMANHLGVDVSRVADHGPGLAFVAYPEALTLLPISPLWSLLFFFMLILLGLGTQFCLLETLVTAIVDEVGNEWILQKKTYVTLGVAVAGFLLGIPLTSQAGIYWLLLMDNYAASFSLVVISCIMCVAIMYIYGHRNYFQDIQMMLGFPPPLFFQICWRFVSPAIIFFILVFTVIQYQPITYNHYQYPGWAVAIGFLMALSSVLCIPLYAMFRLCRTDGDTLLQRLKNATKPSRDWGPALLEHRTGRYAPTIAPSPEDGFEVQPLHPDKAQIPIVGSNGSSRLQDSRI
# Test: Radioligand binding assay using recombinant CHO cell membranes expressing human GlyT1
# Conditions: radioligand binding to human GlyT1c transporter-expressing membranes
# Description: 2. Radioligand binding assays using recombinant CHO cell membranes expressing human GlyT1: […]
row,Ki,SMILES
1,≤ 10 µM,"Cn1cnc(S(=O)(=O)N2C[C@@H](Nc3ccc(C#N)cc3F)[C@H](c3ccccc3)C2)c1 (relative stereo) [Example 53, 3-fluoro-4-({trans-1-[(1-methyl-1H-imidazol-4-yl)sulfonyl]-4-phenylpyrrolidin-3-yl}amino)benzonitrile]"
2,≤ 1 µM,"Cn1cnc(S(=O)(=O)N2C[C@@H](NC(=O)c3cccc(C(F)(F)F)c3Cl)[C@H](c3ccccc3F)C2)c1 (relative stereo) [Example 54, 2-chloro-N-{trans-4-(2-fluorophenyl)-1-[(1-methyl-1H-imidazol-4-yl)sulfonyl]pyrrolidin-3-yl}-3-(trifluoromethyl)benzamide]"
3,≤ 0.1 µM,"Cn1cnc(S(=O)(=O)N2C[C@@H](NC(=O)c3ccc(C(F)(F)F)cc3Cl)[C@H](c3ccccc3)C2)c1 (relative stereo) [Example 60, 2-chloro-N-{trans-1-[(1-methyl-1H-imidazol-4-yl)sulfonyl]-4-phenylpyrrolidin-3-yl}-4-(trifluoromethyl)benzamide]"
4,≤ 1 µM,"Cn1cnc(S(=O)(=O)N2C[C@@H](NC(=O)c3ccc(C(F)(F)F)c(Cl)c3)[C@H](c3ccccc3)C2)c1 (relative stereo) [Example 61, 3-chloro-N-{trans-1-[(1-methyl-1H-imidazol-4-yl)sulfonyl]-4-phenylpyrrolidin-3-yl}-4-(trifluoromethyl)benzamide]"
5,≤ 0.1 µM,"Cn1cnc(S(=O)(=O)N2C[C@@H](NC(=O)c3ccc(C(F)(F)F)cc3Cl)[C@H](c3ccc(F)cc3)C2)c1 (relative stereo) [Example 62, 2-chloro-N-{trans-4-(4-fluorophenyl)-1-[(1-methyl-1H-imidazol-4-yl)sulfonyl]pyrrolidin-3-yl}-4-(trifluoromethyl)benzamide]"
6,≤ 0.1 µM,"Cn1cnc(S(=O)(=O)N2C[C@@H](NC(=O)c3ccc(C(F)(F)F)c(Cl)c3)[C@H](c3ccc(F)cc3)C2)c1 (relative stereo) [Example 63, 3-chloro-N-{trans-4-(4-fluorophenyl)-1-[(1-methyl-1H-imidazol-4-yl)sulfonyl]pyrrolidin-3-yl}-4-(trifluoromethyl)benzamide]"
7,≤ 0.1 µM,"Cn1cnc(S(=O)(=O)N2C[C@@H](NC(=O)c3ccc(C(F)(F)F)cc3)[C@H](c3ccc(F)cc3)C2)c1 (relative stereo) [Example 64, N-{trans-4-(4-fluorophenyl)-1-[(1-methyl-1H-imidazol-4-yl)sulfonyl]pyrrolidin-3-yl}-4-(trifluoromethyl)benzamide]"
8,≤ 1 µM,"Cn1cnc(S(=O)(=O)N2C[C@@H](NC(=O)c3cc(Cl)cc(Cl)c3)[C@H](c3ccc(F)cc3)C2)c1 (relative stereo) [Example 65, 3,5-dichloro-N-{trans-4-(4-fluorophenyl)-1-[(1-methyl-1H-imidazol-4-yl)sulfonyl]pyrrolidin-3-yl}benzamide]"
9,≤ 10 µM,"Cn1cnc(S(=O)(=O)N2C[C@@H](Nc3ccccc3C(F)(F)F)[C@H](c3ccccc3)C2)c1 (relative stereo) [Example 66, trans-1-[(1-methyl-1H-imidazol-4-yl)sulfonyl]-4-phenyl-N-[2-(trifluoromethyl)phenyl]pyrrolidin-3-amine]"
10,≤ 0.01 µM,"Cn1cnc(S(=O)(=O)N2C[C@@H](Nc3cccc(C(F)(F)F)c3)[C@H](c3ccccc3)C2)c1 (relative stereo) [Example 67, trans-1-[(1-methyl-1H-imidazol-4-yl)sulfonyl]-4-phenyl-N-[3-(trifluoromethyl)phenyl]pyrrolidin-3-amine]"
11,≤ 1 µM,"Cn1cnc(S(=O)(=O)N2C[C@@H](Nc3ccc(C(F)(F)F)cc3)[C@H](c3ccccc3)C2)c1 (relative stereo) [Example 68, trans-1-[(1-methyl-1H-imidazol-4-yl)sulfonyl]-4-phenyl-N-[4-(trifluoromethyl)phenyl]pyrrolidin-3-amine]"

# Further lines, the compound ahead of its results:
row,SMILES,Ki
1,"Cc1nn(C)c(Cl)c1S(=O)(=O)N1C[C@@H](NC(=O)c2cccc(C(F)(F)F)c2Cl)[C@H](c2ccccc2)C1 (relative stereo) [Example 40, 2-chloro-N-{trans-1-[(5-chloro-1,3-dimethyl-1H-pyrazol-4-yl)sulfonyl]-4-phenylpyrrolidin-3-yl}-3-(trifluoromethyl)benzamide]",≥ 10 µM
2,"Cc1c(S(=O)(=O)N2C[C@@H](NC(=O)c3cccc(C(F)(F)F)c3Cl)[C@H](c3ccccc3)C2)cnn1C (relative stereo) [Example 41, 2-chloro-N-{trans-1-[(1,5-dimethyl-1H-pyrazol-4-yl)sulfonyl]-4-phenylpyrrolidin-3-yl}-3-(trifluoromethyl)benzamide]",≤ 10 µM
3,"Cc1nn(C)cc1S(=O)(=O)N1C[C@@H](NC(=O)c2cccc(C(F)(F)F)c2Cl)[C@H](c2ccccc2)C1 (relative stereo) [Example 42, 2-chloro-N-{trans-1-[(1,3-dimethyl-1H-pyrazol-4-yl)sulfonyl]-4-phenylpyrrolidin-3-yl}-3-(trifluoromethyl)benzamide]",≤ 10 µM
4,"Cn1cc(S(=O)(=O)N2C[C@@H](NC(=O)c3cccc(C(F)(F)F)c3Cl)[C@H](c3ccccc3)C2)cn1 (relative stereo) [Example 43, 2-chloro-N-{trans-1-[(1-methyl-1H-pyrazol-4-yl)sulfonyl]-4-phenylpyrrolidin-3-yl}-3-(trifluoromethyl)benzamide]",≤ 10 µM
5,"COc1ccc(S(=O)(=O)N2C[C@@H](NC(=O)c3cccc(C(F)(F)F)c3Cl)[C@H](c3ccccc3)C2)cn1 (relative stereo) [Example 44, 2-chloro-N-{trans-1-[(6-methoxypyridin-3-yl)sulfonyl}-4-phenylpyrrolidin-3-yl}-3-(trifluoromethyl)benzamide]",≤ 10 µM
6,"O=C(N[C@@H]1CN(S(=O)(=O)c2cccnc2)C[C@H]1c1ccccc1)c1cccc(C(F)(F)F)c1Cl (relative stereo) [Example 45, 2-chloro-N-[trans-4-phenyl-1-(pyridin-3-ylsulfonyl)pyrrolidin-3-yl]-3-(trifluoromethyl)benzamide]",≥ 10 µM
7,"O=C(N[C@@H]1CN(S(=O)(=O)c2cn[nH]c2)C[C@H]1c1ccccc1)c1cccc(C(F)(F)F)c1Cl (relative stereo) [Example 46, 2-chloro-N-[trans-4-phenyl-1-(1H-pyrazol-4-ylsulfonyl)pyrrolidin-3-yl]-3-(trifluoromethyl)benzamide]",≥ 10 µM
8,"Cn1nccc1S(=O)(=O)N1C[C@@H](NC(=O)c2cccc(C(F)(F)F)c2Cl)[C@H](c2ccccc2)C1 (relative stereo) [Example 47, 2-chloro-N-{trans-1-[(1-methyl-1H-pyrazol-5-yl)sulfonyl]-4-phenylpyrrolidin-3-yl}-3-(trifluoromethyl)benzamide]",≥ 10 µM
9,"Cn1cnc(S(=O)(=O)N2C[C@@H](NC(=O)c3cccc(C(F)(F)F)c3Cl)[C@H](c3ccccc3)C2)c1Cl (relative stereo) [Example 48, 2-chloro-N-{trans-1-[(5-chloro-1-methyl-1H-imidazol-4-yl)sulfonyl]-4-phenylpyrrolidin-3-yl}-3-(trifluoromethyl)benzamide]",≤ 10 µM
10,"Cn1ccc(S(=O)(=O)N2C[C@@H](NC(=O)c3cccc(C(F)(F)F)c3Cl)[C@H](c3ccccc3)C2)n1 (relative stereo) [Example 49, 2-chloro-N-{trans-1-[(1-methyl-1H-pyrazol-3-yl)sulfonyl]-4-phenylpyrrolidin-3-yl}-3-(trifluoromethyl)benzamide]",≤ 10 µM
11,"COc1ccc(N[C@@H]2CN(S(=O)(=O)c3cn(C)cn3)C[C@H]2c2ccccc2)cc1 (relative stereo) [Example 50, trans-N-(4-methoxyphenyl)-1-[(1-methyl-1H-imidazol-4-yl)sulfonyl]-4-phenylpyrrolidin-3-amine]",≤ 10 µM
12,"Cn1cnc(S(=O)(=O)N2C[C@@H](Nc3ccc(C#N)cc3)[C@H](c3ccccc3)C2)c1 (relative stereo) [Example 52, 4-({trans-1-[(1-methyl-1H-imidazol-4-yl)sulfonyl]-4-phenylpyrrolidin-3-yl}amino)benzonitrile]",≤ 10 µM
13,"Cn1cnc(S(=O)(=O)N2C[C@@H](NC(=O)c3cccc(C(F)(F)F)c3Cl)[C@H](c3cccc(F)c3)C2)c1 (relative stereo) [Example 55, 2-chloro-N-{trans-4-(3-fluorophenyl)-1-[(1-methyl-1H-imidazol-4-yl)sulfonyl]pyrrolidin-3-yl}-3-(trifluoromethyl)benzamide]",≤ 1 µM
14,"Cn1cnc(S(=O)(=O)N2C[C@@H](NC(=O)c3cccc(C(F)(F)F)c3Cl)[C@H](c3cccc(Cl)c3)C2)c1 (relative stereo) [Example 56, 2-chloro-N-{trans-4-(3-chlorophenyl)-1-[(1-methyl-1H-imidazol-4-yl)sulfonyl]pyrrolidin-3-yl}-3-(trifluoromethyl)benzamide]",≤ 1 µM
15,"Cc1cccc(N[C@@H]2CN(S(=O)(=O)c3cn(C)cn3)C[C@H]2c2ccccc2)c1 (relative stereo) [Example 58, trans-1-[(1-methyl-1H-imidazol-4-yl)sulfonyl]-N-(3-methylphenyl)-4-phenylpyrrolidin-3-amine]",≤ 0.1 µM
